Row | SMILES | melting point
1 | CC(C)(C)OC(=O)Nc1ccc(CN2OCC(C)(C)C2=O)c(Cl)c1 | 124 to 126 °C
2 | COc1cccc(Oc2c(Cl)ncnc2NS(=O)(=O)c2ccc(C(C)(C)C)cc2)c1 | 109 to 110 °C
3 | N#CCc1ccccc1NC(=O)C(F)(F)C(F)(F)C(F)(F)F | 76 to 79 °C
4 | O=C(CNC(=O)n1ccnc1)N(c1ccccc1)c1ccccc1 | 162 °C
5 | c1ccc(CNc2ccnc3ccccc23)cc1 | 132 °C
6 | CC(C)COC(=O)N=C(N=C1NC(=O)C(=O)N1c1ccc(Cl)c(Cl)c1)NC(C)C | 260 °C
7 | O=C1NCN(c2ccccc2)C12CCN(CCCNc1ccc(F)cc1)CC2 | 158 to 162 °C
8 | CC(=O)Oc1cc(C(=O)Cl)cc(OC(C)=O)c1OC(C)=O | 108 to 110 °C
9 | Cc1c(N)c(=O)n2c3c(cc(C(O)(C(F)(F)F)C(F)(F)F)cc13)CC2 | 292 to 293 °C
10 | Cc1cc(=O)c(Oc2ccc(F)cc2F)c(-c2ccc(S(C)=O)cc2)o1 (stereo unspecified) | 158 to 159 °C
11 | CCc1ccc(CSc2nc(C)cc(=O)[nH]2)nc1 | 127 to 128 °C
12 | CC(=O)Nc1ccc(-c2cc(C(=O)c3ccncc3)sc2N2CCOCC2)cc1 | 149 °C
13 | Cc1cc(-c2cc(C(F)(F)F)n3ncc(C#N)c3n2)ccc1Cl | 216 °C
14 | Oc1ccc(Oc2cccc(-c3nnc(Nc4ccc(Cl)c(Cl)c4)s3)c2)cc1 | 224 to 226 °C
15 | Cc1cccc(-c2nc(N)sc2-c2ccnc(-c3ccc(C(=O)N4CCOCC4)cc3)c2)n1 | 158 to 160 °C
16 | O=C1C=CC(c2cccc(F)c2)(c2cccc(F)c2)CC1 | 95 °C
17 | Cc1nc2ccccc2c(=O)o1 | 79 to 81 °C
18 | COc1ccc(Cl)c(CC(Nc2nc3ccc(Cl)cc3cc2C(=O)O)C(=O)O)c1 (stereo unspecified) | 180 to 185 °C
19 | CCOC(=O)C1=C(CO)NC(CF)=C(C(=O)OCC)C1c1cccc([N+](=O)[O-])c1 (stereo unspecified) | 149 to 150 °C
20 | c1csc(-c2n[nH]c3c2sc2ccccc23)c1 | 236 to 238 °C
21 | CCCCCCCCCCCCCC(=O)Nc1ccc(OC)c(Nc2cc(=O)n(-c3c(Cl)cc(Cl)cc3Cl)[nH]2)c1 | 89 to 93 °C
22 | CCCC(NC=O)C1(c2ccc(Cl)cc2)CCC1 (stereo unspecified) | 97.5 to 98.5 °C
23 | CC(C)(C(=O)c1cccs1)C(=O)c1cccs1 | 153 to 156 °C
24 | O=C1CCc2cc(Br)c(NC(=O)C(F)(F)F)cc21 | 220 °C
25 | O=c1oc(=O)c2ccsc2c2sccc12 | 260 to 263 °C
26 | Cc1cc(-n2nc3ccc(Cl)cc3n2)c(O)c(C(C)(C)C)c1 | 138 to 140 °C

Row | SMILES | melting point
27 | CC(=O)Nc1cc(C(F)(F)F)ccc1SCC#N | 103 °C
28 | COC1=C(OC)C(=O)C(CCCCCCc2ccc(O)cc2)=C(C)C1=O | 87 to 88 °C
29 | CC(C)(C)OC(=O)[C@H]1CC[C@@H](c2ccccc2)N1C(=O)CNC(=O)Nc1ccc(O)c(C(=O)O)c1 (racemic) | 190 °C
30 | CN1C(=O)C(c2ccc(OCCCCCBr)cc2)Sc2cc(Cl)ccc21 (stereo unspecified) | 66 to 68 °C
31 | CCCCCCCCNc1nc(C=O)cs1 | 60 to 62 °C
32 | S=C(Cc1ccccc1)c1ccccc1 | 52 to 53 °C
33 | CCOC(=O)c1cnoc1-c1ccc(Cl)c(F)c1 | 76 to 77 °C
34 | CCOC(=O)Cc1ccc2c(c1)sc1cc(Cl)ccc12 | 68 to 70 °C
35 | COc1cc(C(=O)O)ccc1Cn1nnc2ccc(NC(=O)OC3CCCC3)cc21 | 237 to 239 °C
36 | CCOCC1=C(C(=O)OCC)C(c2ccccc2C(F)(F)F)C(C(=O)OCC)=C(C)N1 (stereo unspecified) | 112 °C
37 | CCC#CCOc1ccc(/C=C/C(=O)Nc2ccccc2C(=O)O)cc1OC | 186 °C
38 | O=C1Nc2ccccc2SC1=Cc1ccc(Cl)cc1 | 238 to 240 °C
39 | OC1c2ccccc2Sc2ccccc21 | 102 to 105 °C
40 | CCOCCn1c(C(=O)C2CCN(CCC3(c4ccccc4)CCN(C(=O)c4cc(OC)c(OC)c(OC)c4)C3)CC2)nc2ccccc21 (stereo unspecified) | 65 to 70 °C
41 | CCOC(=O)n1c2ccccc2c(=O)n1C(c1ccccc1)c1ccccc1 | 115 to 118 °C
42 | O=S(=O)(Nc1ccccc1OC(c1ccncc1)C1CCNCC1)c1ccc2cc(Br)ccc2c1 (stereo unspecified) | 197 to 200 °C
43 | Cc1ccccc1C(=O)c1ccsc1C(=O)O | 115 to 117 °C
44 | COC(=O)CCC/C=C/c1ccc2cc(C)ccc2c1 | 50 °C
45 | COc1nc(N)c(Cl)cc1C(=O)CCC1CCN(CC(O)C(C)(C)C)CC1 (stereo unspecified) | 134 °C
46 | Cc1c(NC(=O)c2ccc(-c3ccc(F)cc3)cc2)ccc2cc(CN3CCC(c4ccccc4)CC3)cnc12 | 171 to 172 °C
47 | CCOC(=O)C(=O)Nc1ccc2cccc([N+](=O)[O-])c2c1NC(=O)C(=O)OCC | 173 to 175 °C
48 | CC(=O)NC1=NN(c2cccc(C)c2)CC1 | 222 to 225 °C
49 | CCOC1Nc2c(Br)cc(Br)cc2S(=O)(=O)N1 (stereo unspecified) | 96 to 98 °C
50 | COc1ccc(COC2CC(n3cc(C(F)(F)F)c(=O)n(C(=O)c4ccccc4)c3=O)OC2CO)cc1 (stereo unspecified) | 152 to 153 °C
51 | COc1ccc(S(N)(=O)=O)c(-c2cccc3c2Nc2ccc(F)cc2S3)c1 | 166 to 168 °C
52 | Nc1nc2ccccc2c2c1ncn2CCNC(=O)CCc1ccccc1 | 254 to 256 °C

Row | SMILES | melting point
53 | COc1ccc(-c2nc(Sc3ccccn3)[nH]c2-c2ccc(OC)cc2)cc1 | 94 °C
54 | Cc1ccc(CNCCOc2cccc3[nH]c(=S)[nH]c23)cc1 | > 250 °C
55 | Cc1cc(CCC(=O)OC(C)(C)C)nc(-c2nc(=O)c3ccc(Cl)cc3s2)c1 | 162 to 163 °C
56 | COC(=O)c1cccc2c(C(=O)c3ccccc3)c(C)oc12 | 70 to 72 °C
57 | CNC(=O)C(Cc1ccc(OC)cc1)NC(=O)C(CC(C)C)C(S)CC(=O)N1CCN(C)CC1 (stereo unspecified) | 65 to 68 °C
58 | COc1ccc2c(ccn3c(=O)c(C(=O)O)cnc23)c1 | 302 to 304 °C
59 | Cn1c(=O)c2c(ncn2CCN2CC=C(c3c[nH]c4ccccc34)CC2)n(C)c1=O | 196 °C
60 | CC1(C)CCONC1=O | 115 to 119 °C
61 | OCC1CN(Cc2ccccc2)C(c2ccccc2)O1 (stereo unspecified) | 100 °C
62 | CCCCOc1ccc(-c2ccc3c(c2)C=C(C(=O)Nc2ccc(CN(C)C4CCOCC4)cc2)CCS3(=O)=O)cc1 | 233 to 236 °C
63 | COc1ccc(-c2nc(Sc3ccc(C(C)(C)C)cc3)n(C3CCCCO3)c2-c2ccc(OC)cc2)cc1 (stereo unspecified) | 162 to 164 °C
64 | CC1(C)Oc2c([N+](=O)[O-])ccc(Cl)c2C1=O | 167 to 168 °C
65 | COC(=O)Cc1ccc2nc(C(F)(F)F)cc(Cl)c2c1 | 108 to 109 °C
66 | CCOc1ccccc1NC=C1C(=O)N(c2ccc(S(=O)(=O)N(CC)CC)cc2)N=C1C | 170 °C
67 | Cc1ccc(Nc2nc(-c3ccccc3)c(-c3nc4ccccc4c(=O)n3-c3ccc(Cl)cc3)s2)cc1 | 225 to 227 °C
68 | CCCC(=O)Nc1ccc(Sc2ccccc2)cc1NC(=NC(=O)OC)NC(=O)OC | 164 to 166 °C
69 | COc1ccc2cccc(Br)c2c1 | 54 to 58 °C
70 | COC(=O)c1c(N)ncn1C1c2ccsc2CC1(C)C (stereo unspecified) | 161 to 162 °C
71 | COc1ccc(N2C(=O)N(c3cccc(C#N)c3)c3nc(Nc4ccccc4)ncc3C2C)c(F)c1 (stereo unspecified) | 223 to 228 °C
72 | O=C(O)c1ccccc1C(=O)c1c(-c2ccccc2)[nH]c2ccccc12 | 106 to 107 °C
73 | Nc1nc2sc(CCC3CCCCC3)nn2c(=O)c1[N+](=O)[O-] | 249 to 251 °C
74 | CNCc1nc(CSCCNC(=C[N+](=O)[O-])NC)cs1 | 105 to 107 °C
75 | CS(=O)(=O)c1ccc(-c2nn(CC#N)c(C(F)(F)F)c2-c2ccc(F)cc2)cc1 | 192 to 194 °C
76 | CCOc1ncc(I)cc1C(=O)OC | 67 to 69 °C
77 | CC(C)c1nn(-c2ccc(C(F)(F)F)cn2)cc1CCCOc1c(Br)cccc1CC(=O)O | 146 to 147 °C
78 | CC(C)COc1nc(N)c2ncn(C3CCCCC3)c2n1 | 123 to 134 °C

Row | SMILES | melting point
79 | O=C(NS(=O)(=O)c1ccccc1)c1ccc(I)cc1 | 192 to 193 °C
80 | N#CSc1ccc(N)c(F)c1 | 36 to 38 °C
81 | CCOC(=O)C1CCCN(C(=O)C2CCC(Nc3nccc(-n4ccc5c(OCCCS(C)(=O)=O)cccc54)n3)CC2)C1 (stereo unspecified) | 175 to 177 °C
82 | Cc1cc2c(C#N)ccc(C#N)c2cc1C | 225 to 227 °C
83 | CCCn1nc(C(C)C)c(C(=O)O)c1Cc1ccc(-c2ccccc2-c2nnn(C(c3ccccc3)(c3ccccc3)c3ccccc3)n2)cc1 | 136 to 139 °C
84 | CSCCCC(=O)NNC(=O)N1Cc2ccccc2Oc2ccc(Cl)cc21 | 134 to 137 °C
85 | CCCCOc1c(CNC(=O)OC(C)(C)C)n(CC(C)C)c(=O)c2ccc(C#N)cc12 | 126 to 127 °C
86 | CCOC(=O)C1Nc2cc(Cl)c(Cl)cc2NC1=O (stereo unspecified) | > 300 °C
87 | CCC(=O)c1ccc(OCCOC)cc1 | 31 to 35 °C
88 | CN(Cc1cc(C(F)(F)F)cc(C(F)(F)F)c1)C(=O)c1c(-c2ccc(F)cc2)c2cccnc2c(=O)n1C | 211 to 212 °C
89 | COc1ccc2c(Cl)noc2c1Br | 134 to 135 °C
90 | Cc1nc(C(C)C)c(S(=O)(=O)c2ccccc2)n1COCc1ccccc1 | 116 to 117 °C
91 | CCOC(=O)c1ncn(C)c1N | 193 to 194 °C
92 | NC(=O)CCCCCCCCCCC(=O)O | 129 to 131 °C
93 | O=Cc1c(F)cc(Br)cc1Br | 57 to 58 °C
94 | COc1cccc(C=CC(=O)Cl)c1 | 43 to 45 °C
95 | CCOC(=O)c1cn2c3c(c(-c4cc(C)nc(C)c4)c(F)c(SCc4ccccc4)c3c1=O)OC[C@@H]2C | 175 to 178 °C
96 | CC12CC(=O)C3C(CCC4CC=CCC43C)C1CCC2C#N (stereo unspecified) | 189 to 191 °C
97 | Nc1nc2c(c(Nc3ccc(F)c(Cl)c3)n1)-c1ccccc1C2 | 232 to 233 °C
98 | CO[C@]1(c2cnc(SC)s2)CCO[C@@H]1C (racemic) | 51 to 52 °C
99 | FC(F)(F)COC(c1ccc(Cl)c2nc3n(c12)CCCN3c1ccc(Cl)cc1Cl)C1CC1 (stereo unspecified) | 143 to 145 °C
100 | CC1(C)Oc2ccc([N+](=O)[O-])cc2C(n2ccccc2=O)=C1CBr | 221 °C
101 | CCOC(=O)C1=C(COCC#CC(=O)O)NC(C)=C(C(=O)OC)C1c1cccc(Cl)c1Cl (stereo unspecified) | 100 °C

From a melting point compilation (Tetko et al.; mined from patent text by program, amines drawn as free bases though some values may be those of a salt)
